# Biological target: T1, Recombinant HCV polymerase (Hepatitis C virus genotype 1b, UniProt P26663)
# T1 construct: Recombinant HCV polymerase was tested for its ability to perform primer/template-directed transcription
# Assay: biochemical
# Conditions: inhibition of polymerase-directed transcription; 30 min at 30° C; 30 nM enzyme; cpm data in triplicate
# Method in brief: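 Primer/template-directed RNA synthesis by 2.5 pmol HCV polymerase on poly(rC)300/biotin-dG12 with 1 μM GTP plus α-32P-GTP, in pH 7.2 Tris buffer with 10 mM MgCl2, for 30 min at 30 °C. Products were filter-captured and counted, with 1% DMSO final. IC50 was fitted from triplicate cpm; percent inhibition was reported where IC50 was impractical.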
# T1 sequence (P26663 2420-3010): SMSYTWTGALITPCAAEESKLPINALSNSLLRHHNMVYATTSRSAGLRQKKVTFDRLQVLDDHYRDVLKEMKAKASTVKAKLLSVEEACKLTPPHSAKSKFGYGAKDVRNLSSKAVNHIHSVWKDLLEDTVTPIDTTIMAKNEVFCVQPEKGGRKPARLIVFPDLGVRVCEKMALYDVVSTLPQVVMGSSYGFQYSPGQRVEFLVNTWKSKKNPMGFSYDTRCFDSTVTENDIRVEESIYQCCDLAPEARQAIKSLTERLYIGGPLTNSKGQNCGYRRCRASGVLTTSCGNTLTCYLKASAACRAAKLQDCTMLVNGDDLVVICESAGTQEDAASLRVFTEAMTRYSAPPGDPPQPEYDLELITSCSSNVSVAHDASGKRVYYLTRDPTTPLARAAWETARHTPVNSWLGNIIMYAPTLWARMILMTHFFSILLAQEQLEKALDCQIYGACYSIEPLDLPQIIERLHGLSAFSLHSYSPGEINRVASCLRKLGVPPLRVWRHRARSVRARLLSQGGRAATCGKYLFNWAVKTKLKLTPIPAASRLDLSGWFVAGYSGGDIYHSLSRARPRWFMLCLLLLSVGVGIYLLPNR
row,Structure (SMILES),IC50 [nM]
1,"Cc1cc(C)n2nc(CC3=C(O)CC(CCc4ccc(S(C)(=O)=O)c(Cl)c4)(C4CCCC4)OC3=O)nc2n1 (stereo not drawn) [B(1), 6-{2-[3-Chloro-4-(methylsulfonyl)phenyl]ethyl}-6-cyclopentyl-3-[(5,7-dimethyl[1,2,4]triazolo[1,5-a]pyrimidin-2-yl)methyl]hydroxy-5,6-dihydro-2H-pyran-2-one]",60
2,"CS(=O)(=O)c1ccc(CCC2(C3CCCC3)CC(=O)CC(=O)O2)cc1Cl (stereo not drawn) [B(2), 6-{2-[3-Chloro-4-(methylsulfonyl)phenyl]ethyl}-6-cyclopentyldihydro-2H-pyran-2,4(3H)-dione]",48000
3,CS(=O)(=O)c1ccc(CCC2(C3CCCC3)CC(=O)CC(=O)O2)cc1C(F)(F)F (stereo not drawn) [B(3)],6400
4,"Cc1cc(C)n2nc(CC3=C(O)CC(CCc4ccc(S(C)(=O)=O)c(C(F)(F)F)c4)(C4CCCC4)OC3=O)nc2n1 (stereo not drawn) [B(4), 6-Cyclopentyl-3-[(5,7-dimethyl[1,2,4]triazolo[1,5-a]pyrimidin-2-yl)methyl]-4-hydroxy-6-{2-[4-(methylsulfonyl)-3-(trifluoromethyl)phenyl]ethyl}-5,6-dihydro-2H-pyran-2-one]",6
5,"COC(=O)c1ccc(CCC2(C3CCCC3)CC(=O)CC(=O)O2)cc1F (stereo not drawn) [B(5), Methyl 4-[2-(2-cyclopentyl-4,6-dioxotetrahydro-2H-pyran-2-yl)ethyl]-2-fluorobenzoate]",22000
6,"O=C1CC(=O)OC(CCc2ccc(C(=O)O)c(F)c2)(C2CCCC2)C1 (stereo not drawn) [B(6), 4-[2-(2-Cyclopentyl-4,6-dioxotetrahydro-2H-pyran-2-yl)ethyl]-2-fluorobenzoic acid]",12000
7,COC(=O)c1ccc(CCC2(C3CCCC3)CC(=O)CC(=O)O2)cc1Cl (stereo not drawn) [B(7)],7000
8,"COC(=O)c1ccc(CCC2(C3CCCC3)CC(O)=C(Cc3nc4nc(C)cc(C)n4n3)C(=O)O2)cc1F (stereo not drawn) [B(8), Methyl 4-(2-{2-cyclopentyl-5-[(5,7-dimethyl[1,2,4]triazolo[1,5-a]pyrimidin-2-yl)methyl]-4-hydroxy-6oxo-3,6-dihydro-2H-pyran-2-yl}ethyl)-2-fluorobenzoate]",29
9,"COC(=O)c1ccc(CCC2(C3CCCC3)CC(O)=C(Cc3nc4nc(C)cc(C)n4n3)C(=O)O2)cc1Cl (stereo not drawn) [B(9), Methyl 2-chloro-4-(2-{2-cyclopentyl-5-[(5,7-dimethyl[1,2,4]triazolo[1,5-a]pyrimidin-2-yl)methyl]-4-hydroxy-6-oxo-3,6-dihydro-2H-pyran-2-yl}ethyl)benzoate]",6
10,O=C1CC(=O)OC(CCc2ccc(C(=O)O)c(Cl)c2)(C2CCCC2)C1 (stereo not drawn) [B(10)],30000
11,"Cc1cc(C)n2nc(CC3=C(O)CC(CCc4ccc(C(=O)O)c(F)c4)(C4CCCC4)OC3=O)nc2n1 (stereo not drawn) [B(11), 4-(2-{2-Cyclopentyl-5-[(5,7-dimethyl[1,2,4]triazolo[1,5-a]pyrimidin-2-yl)methyl]-4-hydroxy-6-oxo-3,6dihydro-2H-pyran-2-yl}ethyl)-2-fluorobenzoic acid]",260
12,Cc1cc(C)n2nc(CC3=C(O)CC(CCc4ccc(C(=O)O)c(Cl)c4)(C4CCCC4)OC3=O)nc2n1 (stereo not drawn) [B(12)],110
13,"CCOC(=O)c1cnc2nc(CC3=C(O)CC(CCc4ccc(C(C)(C)C#N)c(Cl)c4)(C4CCCC4)OC3=O)nn2c1 (stereo not drawn) [B(13), Ethyl 2-[(6-{2-[3-chloro-4-(1-cyano-1-methylethyl)phenyl]ethyl}-6-cyclopentyl-4-hydroxy-2-oxo-5,6-dihydro-2H-pyran-3-yl)methyl][1,2,4]triazolo[1,5-a]pyrimidine-6-carboxylate]",4
14,"CC(C)(C#N)c1ccc(CCC2(C3CCCC3)CC(O)=C(Cc3cn4nccnc4n3)C(=O)O2)cc1Cl (stereo not drawn) [B(14), 2-(2-Chloro-4-{2-[2-cyclopentyl-4-hydroxy-5-(imidazo[1,2-b][1,2,4]triazin-6-ylmethyl)-6-oxo-3,6-dihydro-2H-pyran-2-yl]ethyl}phenyl)-2-methylpropanenitrile]",26
15,"COc1cc(OC)c(CCC2(C3CCCC3)CC(O)=C(Cc3nc(-c4cnccn4)nn3C)C(=O)O2)cc1Cl (stereo not drawn) [B(15), 6-[2-(5-Chloro-2,4-dimethoxyphenyl)ethyl]-6-cyclopentyl-4-hydroxy-3-[(1-methyl-3-pyrazin-2-yl-1H-1,2,4-triazol-5-yl)methyl]-5,6-dihydro-2H-pyran-2-one]",19
16,"COc1cc(OC)c(CCC2(C3CCCC3)CC(O)=C(Cc3nc(-c4ccccn4)nn3C)C(=O)O2)cc1Cl (stereo not drawn) [B(16), 6-[2-(5-Chloro-2,4-dimethoxyphenyl)ethyl]-6-cyclopentyl-4-hydroxy-3-[(1-methyl-3-pyridin-2-yl-1H-1,2,4-triazol-5-yl)methyl]-5,6-dihydro-2H-pyran-2-one]",53
17,"COc1cc(OC)c(CCC2(C3CCCC3)CC(O)=C(Cc3nc(-c4ccccc4)nn3C)C(=O)O2)cc1Cl (stereo not drawn) [B(17), 6-[2-(5-Chloro-2,4-dimethoxyphenyl)ethyl]-6-cyclopentyl-4-hydroxy-3-[(1-methyl-3-phenyl-1H-1,2,4-triazol-5-yl)methyl]-5,6-dihydro-2H-pyran-2-one]",26
18,"CCn1nc(C)c(CC2=C(O)CC(CCc3cc(Cl)c(OC)cc3OC)(C3CCCC3)OC2=O)c1C (stereo not drawn) [B(18), 6-[2-(5-Chloro-2,4-dimethoxyphenyl)ethyl]-6-cyclopentyl-3-[(1-ethyl-3,5-dimethyl-1H-pyrazol-4-yl)methyl]-4-hydroxy-5,6-dihydro-2H-pyran-2-one]",170
19,"CCn1nc(C)c(CC2=C(O)CC(CCc3ccc(OC(C)C)c(Cl)c3)(C3CCCC3)OC2=O)c1C (stereo not drawn) [B(19), 6-[2-(3-chloro-4-isopropoxyphenyl)ethyl]-6-cyclopentyl-3-[(1-ethyl-3,5-dimethyl-1H-pyrazol-4-yl)methyl]-4-hydroxy-5,6-dihydro-2H-pyran-2-one]",1100
20,"CCc1nn2c(=O)cc(CC3=C(O)CC(CCc4ccc(C(C)(C)C#N)c(F)c4)(C4CCCC4)OC3=O)nc2s1 (stereo not drawn) [B(20), 2-[4-(2-{2-Cyclopentyl-5-[(2-ethyl-5-oxo-5H-[1,3,4]thiadiazolo[3,2-a]pyrimidin-7-yl)methyl]-4-hydroxy-6-oxo-3,6-dihydro-2H-pyran-2-yl}ethyl)-2-fluorophenyl]-2-methylpropanenitrile]",5

# Now from value to compound:
row,IC50 [nM],Structure (SMILES)
1,178,"COc1cc(OC)c(CCC2(C3CCCC3)CC(=O)C(Sc3nc(N)nc4nc[nH]c34)C(=O)O2)cc1Cl (stereo not drawn) [B(21), 3-[(2-Amino-7H-purin-6-yl)thio]-6-[2-(5-chloro-2,4-dimethoxyphenyl)ethyl]-6-cyclopentyldihydro-2H-pyran-2,4(3H)-dione]"
2,42,"Cc1nc(CC2=C(O)CC(CCc3ccc(C(C)(C)C#N)c(Cl)c3)(C3CCCC3)OC2=O)n(C)n1 (stereo not drawn) [B(22), 2-[2-Chloro-4-(2-{2-cyclopentyl-5-[(1,3-dimethyl-1H-1,2,4-triazol-5-yl)methyl]-4-hydroxy-6-oxo-3,6-dihydro-2H-pyran-2-yl}ethyl)phenyl]-2-methylpropanenitrile]"
3,140,"CCn1cc(CC2=C(O)CC(CCc3ccc(C(C)(C)C#N)c(Cl)c3)(C3CCCC3)OC2=O)cn1 (stereo not drawn) [B(23), 2-[2-Chloro-4-(2-{2-cyclopentyl-5-[(1-ethyl-1H-pyrazol-4-yl)methyl]-4-hydroxy-6-oxo-3,6-dihydro-2H-pyran-2-yl}ethyl)phenyl]-2-methylpropanenitrile]"
4,100,"Cn1cc(CC2=C(O)CC(CCc3ccc(C(C)(C)C#N)c(Cl)c3)(C3CCCC3)OC2=O)cn1 (stereo not drawn) [B(24), 2-[2-Chloro-4-(2-{2-cyclopentyl-4-hydroxy-5-[(1-methyl-1H-pyrazol-4-yl)methyl]-6-oxo-3,6-dihydro-2H-pyran-2-yl}ethyl)phenyl]-2-methylpropanenitrile]"
5,33,"Cc1nn(C)c(C)c1CC1=C(O)CC(CCc2ccc(C(C)(C)C#N)c(Cl)c2)(C2CCCC2)OC1=O (stereo not drawn) [B(25), 2-[2-Chloro-4-(2-{2-cyclopentyl-4-hydroxy-6-oxo-5-[(1,3,5-trimethyl-1H-pyrazol-4-yl)methyl]-3,6-dihydro-2H-pyran-2-yl}ethyl)phenyl]-2-methylpropanenitrile]"
6,18000,"Cc1cc(C)n2nc(N(C)C3C(=O)CC(CCc4ccc(C(C)(C)C#N)c(Cl)c4)(C4CCCC4)OC3=O)nc2n1 (stereo not drawn) [B(26), 2-[2-Chloro-4-(2-{2-cyclopentyl-5-[(5,7-dimethyl[1,2,4]triazolo[1,5-a]pyrimidin-2-yl)(methyl)amino]-4,6-dioxotetrahydro-2H-pyran-2-yl}ethyl)phenyl]-2-methylpropanenitrile]"
7,10000,"Cc1cc(C)n2nc(OC3C(=O)CC(CCc4ccc(C(C)(C)C#N)c(Cl)c4)(C4CCCC4)OC3=O)nc2n1 (stereo not drawn) [B(27), 2-[2-Chloro-4-(2-{2-cyclopentyl-5-[(5,7-dimethyl[1,2,4]triazolo[1,5-a]pyrimidin-2-yl)oxy]-4,6-dioxotetrahydro-2H-pyran-2-yl}ethyl)phenyl]-2-methylpropanenitrile]"
8,5200,"CC(C)(C#N)c1ncc(CCC2(C3CCCC3)CC(=O)CC(=O)O2)cc1Cl (stereo not drawn) [B(29), 2-{3-Chloro-5-[2-(2-cyclopentyl-4,6-dioxotetrahydro-2H-pyran-2-yl)ethyl]pyridin-2-yl}-2-methylpropanenitrile]"
9,1200,"Cc1cc(C)n2nc(CC3=C(O)CC(CCn4cc(Br)ccc4=O)(C4CCCC4)OC3=O)nc2n1 (stereo not drawn) [B(30), 5-Bromo-1-(2-{2-cyclopentyl-5-[(5,7-dimethyl[1,2,4]triazolo[1,5-a]pyrimidin-2-yl)methyl]-4-hydroxy-6-oxo-3,6-dihydro-2H-pyran-2-yl}ethyl)pyridin-2(1H)-one]"
10,180,"CCc1ccc(=O)n(CCC2(C3CCCC3)CC(O)=C(Cc3nc4nc(C)cc(C)n4n3)C(=O)O2)c1 (stereo not drawn) [B(31), 1-(2-{2-Cyclopentyl-5-[(5,7-dimethyl[1,2,4]triazolo[1,5-a]pyrimidin-2-yl)methyl]-4-hydroxy-6-oxo-3,6-dihydro-2H-pyran-2-yl}ethyl)-5-ethylpyridin-2(1H)-one]"

# Reference: patent US7151105B2, “Inhibitors of Hepatitis C virus RNA-dependent RNA polymerase, and compositions and treatments using the same” (Agouron Pharmaceuticals, Inc., priority 2004, dated 2006)
